Experimental findings from ChEMBL document CHEMBL3046731, “Synthesis and antifungal activity of 1-substitutedphenyl-3-(5-halobenzimidazol-2-yl) acylurea” (J Pestic Sci, 2010) are described below.

One assay relates to Botrytis cinerea. Kind of assay: Antifungal activity against Botryotinia fuckeliana assessed as inhibition of mycelium growth on potato dextrose agar at 25 +/- 1 degC for 96 hr. In kind it is functional, organism-based.
In a further assay the test system is Sclerotinia sclerotiorum. Kind of assay: Antifungal activity against Sclerotinia sclerotiorum assessed as inhibition of mycelium growth on potato dextrose agar at 25 +/- 1 degC for 96 hr. In kind it is functional, organism-based.

≈ marks a conversion by molar mass, not a printed value.

The EC50 is the concentration giving half of the maximal effect. As for `O=C(NC(=O)c1nc2cc(Cl)ccc2[nH]1)Nc1ccccc1`, the EC50 came to 22.4 µg/mL (≈ 71.2 µM) with Botrytis cinerea and 11.7 µg/mL (≈ 37 µM) with Sclerotinia sclerotiorum.
For `O=C(NC(=O)c1nc2cc(Cl)ccc2[nH]1)Nc1ccc(F)cc1`, in that order: 8.76 µg/mL (≈ 26.3 µM) and 6.23 µg/mL (≈ 18.7 µM).
In the same order, the values of `O=C(NC(=O)c1nc2cc(Cl)ccc2[nH]1)Nc1ccc(Cl)cc1` are 18.9 µg/mL (≈ 54 µM) and 6.05 µg/mL (≈ 17.3 µM).
In the same order, the values of `O=C(NC(=O)c1nc2cc(Cl)ccc2[nH]1)Nc1ccc(Cl)c(Cl)c1` are 12.6 µg/mL (≈ 33 µM) and 5.5 µg/mL (≈ 14.3 µM).
For the molecule `O=C(NC(=O)c1nc2cc(Cl)ccc2[nH]1)Nc1ccc(Br)cc1`, the EC50 with Botrytis cinerea was found to be 3.94 µg/mL (≈ 10 µM); with Sclerotinia sclerotiorum it was 9.28 µg/mL (≈ 23.6 µM).
In the same order, the values of `O=C(NC(=O)c1nc2cc(Cl)ccc2[nH]1)Nc1ccc([N+](=O)[O-])cc1` are 30.7 µg/mL (≈ 85.4 µM) and 9.14 µg/mL (≈ 25.4 µM).
For `O=C(NC(=O)c1nc2cc(F)ccc2[nH]1)Nc1ccccc1`, in that order: 19.9 µg/mL (≈ 66.9 µM) and 6.55 µg/mL (≈ 22 µM).
For `O=C(NC(=O)c1nc2cc(F)ccc2[nH]1)Nc1ccc(F)cc1`, in that order: 10.9 µg/mL (≈ 34.6 µM) and 10.9 µg/mL (≈ 34.6 µM).
Regarding `O=C(NC(=O)c1nc2cc(F)ccc2[nH]1)Nc1ccc(Cl)cc1`, the 50% effective concentration (EC50) in the assay on Botrytis cinerea stood at 4.65 µg/mL (≈ 14 µM); in the assay on Sclerotinia sclerotiorum, 14.6 µg/mL (≈ 43.9 µM).
For `O=C(NC(=O)c1nc2cc(F)ccc2[nH]1)Nc1ccc(Cl)c(Cl)c1`, in that order: 11.5 µg/mL (≈ 31.5 µM) and 9.03 µg/mL (≈ 24.6 µM).
Turning to `O=C(NC(=O)c1nc2cc(F)ccc2[nH]1)Nc1ccc(Br)cc1`, the EC50 in the assay with Botrytis cinerea was found to be 13.6 µg/mL (≈ 36.1 µM); in the assay with Sclerotinia sclerotiorum it was 8.66 µg/mL (≈ 23 µM).
As for `O=C(NC(=O)c1nc2cc(F)ccc2[nH]1)Nc1ccc([N+](=O)[O-])cc1`, the values for the EC50 in the assay on Botrytis cinerea and with Sclerotinia sclerotiorum were 10.4 µg/mL (≈ 30.2 µM) and 8.71 µg/mL (≈ 25.4 µM), respectively.
In the same order, the values of `COC(=O)NC(=S)Nc1ccccc1NC(=S)NC(=O)OC` [THIOPHANATE METHYL] are 1.03 µg/mL (≈ 3.01 µM) and 10.5 µg/mL (≈ 30.5 µM).
